According to US5045566A, “Novel imidate insecticides” (ICI Americas Inc., priority 1989, dated 1991):

What was measured:
Assay type in all cases: in vivo
[1] = system: Tobacco Budworm [Heliothis virescens (Fabricius)] eggs; test: Tobacco budworm eggs (TBW-E); conditions: percent in solution; 2-day old eggs
Method in brief: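 LC50 is given as percent compound in the dipping solution, fitted from dosage-mortality curves. Two-day-old eggs on paper towel were dipped in acetone solutions (top concentration 0.1%), kept at 78° F on rearing medium, and scored after control hatch and larval feeding.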

[2] = system: Cabbage Looper [Trichoplusia ni (Hubner)]; test: Cabbage looper leaf dip (CL), 3-5 days; conditions: percent in solution, second-instar larvae
Method in brief: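 LC50, as percent test compound in solution, derived from dosage-mortality curves; concentrations started at 0.1% and went lower. Five second-instar larvae per dish fed on acetone-water-dipped, dried squash cotyledons in a humid chamber. Deaths recorded 3-5 days post-infestation.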

[3] = system: Beet Armyworm (Spodoptera exigua); test: Beet armyworm leaf dip (BAW), 5 days; conditions: percent in solution; second-instar larvae; five days
Procedure: The compounds in Tables 1 and 2 above were tested for insecticidal activity using the following testing procedures. LC50 values, based on the results of these tests and calculated according to dosage-mortality curves, are expressed in Table 3.
Beet Armyworm (Spodoptera exigua):
Test compounds were diluted in a 50-50 acetone-water solution. Young leaves of sugar beets (Beta vulgaris) were immersed in the test solutions for 2-3 seconds and placed on a wire screen to dry. The dried leaves were placed in petri dishes containing a moistened filter paper and infested with five second-instar beet armyworm larvae. The dishes were placed in a high humidity chamber. Mortality of the larvae was recorded five days later. Test concentrations ranged from 0.1% downward. The LC-50 values are expressed below in Table 3 under the heading "BAW" in terms of percent of the test compound in solution.

[4] = system: Maize weevil [Sitophilus zeamais (Motschulsky)]; test: Maize weevil on dipped corn seeds (MW), 48 hours; conditions: percent in solution, adult weevils
Method in brief: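 LC50, given as percent of compound in dipping solution, comes from dosage-mortality curves over concentrations descending from 0.01%. Four corn seeds soaked 2-3 s in 50:50 acetone:water solution were dried and held with 10 adult weevils, about 25° C, mortality read after 48 h.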

[5] = system: Housefly [Musca domestica]; test: Housefly contact mortality in dishes (HF), 48 hours; conditions: μg of test compound per 25 female flies
Method in brief: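 Acetone solutions (with 0.01% peanut oil) dried onto dish bottoms, then 25 female flies, 1-2 days old, caged over the residue with sugar water. Mortality scored at 48 hours; LC50 from dosage-mortality curves, in μg per 25 female flies, top level 100 μg.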

[6] = system: Aster Leafhopper [Macrosteles fascifrens (Stal)]; test: Aster leafhopper on dipped oat seedlings (LH), 48 hours; conditions: percent in solution, adults/nymphs
Method in brief: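 Three ~10 cm oat seedlings per cup were dipped 2-3 seconds in 50-50 acetone-water compound solutions, dried, and caged with ten adult/nymph leafhoppers. Mortality was counted after 48 hours at concentrations from 0.05% downward. LC50, as percent compound in solution, came from dosage-mortality curves.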

[7] = system: Black Bean Aphid [Aphis fabae (Scop.)]; test: Black bean aphid spray test on nasturtium (BBA), 48 hours; conditions: percent of test compound in sprayed solution
Method in brief: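 LC50, given as percent test compound in the sprayed liquid, was calculated from dosage-mortality curves using concentrations from 0.05% downward. Sprays in 50:50 acetone-water went to runoff on ~5 cm nasturtiums carrying 25-50 aphids of mixed ages, one day after infestation. Deaths were counted 48 h later under greenhouse conditions.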

[8] = system: Tobacco Budworm [Heliothis virescens (Fabricius)] larvae; test: Tobacco budworm larvae, contact (TBW-C), 5 days; conditions: percent in solution, second-instar larvae
Method in brief: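 Cotton cotyledons dipped 2–3 s in compound in 50-50 acetone-water, dried, then infested with 5 second-instar larvae and held 5 days at high humidity. Mortality scored; LC50 from dosage-mortality curves, expressed as percent compound in solution, concentrations from 0.1% downward.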

Compound	LC50 TBW E (eggs) [1]	LC50 CL [2]	LC50 BAW [3]	LC50 MW [4]	LC50 HF [5]	LC50 LH [6]	LC50 BBA [7]	LC50 TBW C (contact) [8]
Clc1cccc(N=C(OCc2cccc(Oc3ccccc3)c2)C(Cl)Cl)c1 [Compound 1]	0.05%	0.005%	0.009%	> 0.01%	4.8 µg	> 0.05%	0.0003%	0.06%
CC(C)C(=Nc1ccc(Cl)cc1)OCc1cccc(Oc2ccccc2)c1 [Compound 2]	0.04%	0.006%	0.01%	–	4.5 µg	0.0003%	0.0003%	0.0009%
CC(Cl)(Cl)C(=Nc1ccc(Cl)cc1)OCc1cccc(Oc2ccccc2)c1 [Compound 3]	> 0.1%	0.012%	0.015%	> 0.01%	50 µg	> 0.05%	0.003%	0.009%
Clc1ccc(N=C(OCc2cccc(Oc3ccccc3)c2)C(Cl)Cl)c(Cl)c1 [Compound 4]	> 0.1%	0.007%	0.04%	–	100 µg	> 0.05%	> 0.05%	0.05%
CC(C)C(=Nc1ccc(Cl)c(Cl)c1)OCc1cccc(Oc2ccccc2)c1 [Compound 9]	0.02%	0.001%	0.0005%	> 0.01%	14 µg	0.0003%	0.001%	0.0008%
Clc1ccc(N=C(OCc2cccc(Oc3ccccc3)c2)C(Cl)Cl)cc1 [Compound 29]	0.01%	0.002%	0.003%	> 0.01%	5 µg	0.003%	0.001%	0.001%
ClCC(=Nc1ccc(Cl)cc1)OCc1cccc(Oc2ccccc2)c1 [Compound 31]	> 0.1%	0.05%	0.08%	> 0.01%	> 100 µg	> 0.05%	0.05%	0.01%
CC(Cl)C(=Nc1ccc(Cl)cc1)OCc1cccc(Oc2ccccc2)c1 (centres unmarked) [Compound 33]	> 0.1%	0.01%	0.02%	> 0.01%	17 µg	> 0.05%	0.003%	0.0025%
CC(=Nc1ccccc1)OCc1cccc(Oc2ccccc2)c1 [Compound 42]	> 0.1%	> 0.1%	> 0.1%	> 0.01%	45 µg	> 0.05%	> 0.05%	> 0.1%
CC(C)C(=Nc1cccc(F)c1)OCc1cccc(Oc2ccccc2)c1 [Compound 47]	0.06%	0.002%	0.002%	–	10 µg	0.0003%	0.001%	0.002%
CC(C)C(=Nc1ccc(F)cc1F)OCc1cccc(Oc2ccccc2)c1 [Compound 52]	> 0.05%	0.0025%	0.01%	–	8 µg	0.001%	0.001%	0.004%
CC(C)C(=Nc1ccc(F)c(F)c1)OCc1cccc(Oc2ccccc2)c1 [Compound 54]	0.017%	0.0003%	0.004%	–	3.5 µg	0.00015%	0.001%	0.001%
FC(F)(F)c1ccc(N=C(OCc2cccc(Oc3ccccc3)c2)C(Cl)Cl)cc1 [Compound 61]	0.03%	0.001%	0.002%	> 0.01%	29 µg	> 0.05%	0.001%	0.03%
FC(F)(F)Oc1ccc(N=C(OCc2cccc(Oc3ccccc3)c2)C(Cl)Cl)cc1 [Compound 64]	0.03%	0.0025%	0.0025%	> 0.01%	11 µg	> 0.05%	0.0006%	0.1%
CC(C)C(=Nc1ccc(Cl)c(C(F)(F)F)c1)OCc1cccc(Oc2ccccc2)c1 [Compound 71]	0.065%	0.0006%	0.0004%	–	50 µg	0.002%	0.001%	0.0008%
CC(C)C(=Nc1cccc(C(F)(F)F)c1)OCc1ccc(F)c(Oc2ccccc2)c1 [Compound 80]	0.005%	0.0003%	0.0018%	–	4.5 µg	0.0001%	0.00025%	0.00075%
CC(C)C(=Nc1ccc(Br)c(F)c1)OCc1ccc(F)c(Oc2ccc(F)cc2)c1 [Compound 282]	0.02%	0.00007%	0.0025%	0.008%	16 µg	–	–	0.0007%
CC(C)C(=Nc1ccc2c(c1)OC(C)(C)O2)OCc1ccc(F)c(Oc2ccc(F)cc2)c1 [Compound 283]	0.016%	0.00009%	0.0013%	> 0.01%	23 µg	–	–	0.0009%
CC(C)C(=Nc1ccc2c(c1)OC(F)(F)O2)OCc1ccc(F)c(Oc2ccc(F)cc2)c1 [Compound 284]	–	0.00005%	0.0025%	0.0075%	39 µg	0.0003%	0.0003%	0.0002%
CC(C)C(=Nc1ccc(Br)cc1)OCc1ccc(F)c(Oc2ccc(F)cc2)c1 [Compound 333]	0.025%	0.00024%	> 0.1%	> 0.01%	15 µg	–	0.001%	0.00075%
CC(C)C(=Nc1ccc(I)cc1)OCc1ccc(F)c(Oc2ccc(F)cc2)c1 [Compound 335]	0.05%	0.00027%	> 0.1%	> 0.01%	34 µg	–	0.0008%	0.00025%
CC(C)C(=Nc1ccc(F)c(Cl)c1)OCc1cc(Oc2ccc(F)cc2)c(F)cc1F [Compound 343]	> 0.1%	0.00027%	> 0.1%	> 0.01%	40 µg	–	0.002%	0.00025%
CC(C)C(=Nc1ccc2c(c1)OC(F)(F)O2)OCc1cccc(Oc2ccc(Cl)cc2)c1 [Compound 450]	0.015%	0.00016%	0.005%	0.01%	72 µg	–	–	0.0001%
CC(C)C(=Nc1ccc(F)c(Cl)c1F)OCc1cccc(Oc2ccc(Cl)cc2)n1 [Compound 500]	0.02%	0.00009%	0.002%	–	16 µg	–	> 0.05%	0.00075%
